Reference: patent EP1991561B1, “BRANCHED MULTIMERIC PEPTIDES FOR TUMOR DIAGNOSIS AND THERAPY” (Universita' Degli Studi di Siena, priority 2006, dated 2007)
Where two headings read alike, the source gives them in different places.

Key:
HT29 cells [1] = settings: 1 h at 4°C, washed, then 37°C
HaCat cells = settings: 5 µg/ml, 1h at 4°C
Method: (§1) Confocal laser microscopy was used to carry out receptor binding assays. […] After fixing with 4% formalin, the plasma membrane was stained by incubation with concanavalin A-biotin (10 µg/mL in PBS - 1% BSA, Molecular Probes, Cat. No. C21420) at 4°C for 15 min and avidin-FITC (0.5 µg/ml in PBS - 1% BSA, Sigma, Cat. No S3762).

HT29 cells [2] = system: HT29 cells
Description: Nonetheless, down-regulation of receptors and their depletion from the membrane may dramatically impair the efficiency of a peptide-based therapy.

HT29 cells [3] = assay: Lysosomal localization with lysotracker green in HT29 cells; settings: 1 h at 4°C followed by 4 hours in DMEM at 37°C
HT29 cells [4] = assay: Confocal laser microscopy receptor binding assay on HT29 cells; assay type: cell-based, human; settings: 5 µg/ml in PBS - 1% BSA, 1 hour at 4°C
Method: as §1

HT29 cells [5] = assay: In vitro cytostatic activity by MTT assay, HT29; assay type: cell-based, human
Method: HT29 cells were plated in 0.2 ml aliquots at a density of 5 x 10^3 in a 96-well microplate. Different concentrations of NT4-MTX were added 24 hours after plating. Growth inhibition was assessed by MTT assay 6 days later. The same experiments were carried out with the scramble analog of the conjugate and with free MTX.
The same experiments were performed with the scramble analogue [(LRIPRY)4-MTX] and with unconjugated MTX. SW620 (NTR-expressing human colon carcinoma cell line, Istituto Zooprofilattico Sperimentale, Brescia, Italy) and on HCT116 (NTR-expressing human colon carcinoma cell line, Istituto Zooprofilattico Sperimentale, Brescia, Italy cell lines) were also tested with the same procedure.

NT receptors (NTR) = biological target: T1, NT receptors (NTR) (Homo sapiens, UniProt P30989); assay: Inhibition of 125I-NT binding to HT29 cell membranes; settings: displacement of 125I-NT, HT29 human adenocarcinoma cell membranes
T1 construct: HT29 human adenocarcinoma cell membranes, that over-express NTR; endogenous in cells; host or cells: HT29 human colon adenocarcinoma cell membranes
Description: A tetrameric peptide carrying scrambled NT aminoacids (LRIPRY), scramble NT4(8-13), was used as control and allowed to verify sequence specificity.

HT29 tumors [6] = system: HT29 tumors
Method: Female CD-1 nude mice (Charles River Laboratories Inc., Wilmington, MA) 6-7 weeks of age (mean weight of 25 g), were injected subcutaneously in the right flank with of 2 x 10^6 HT29 cells.
Tumor volumes were measured daily with a caliper using the following formula: Volume = length x width^2 x Π/6. The tumor volumes for each group were pooled to plot mean tumor growth curves. At the end of the experiment, the mice were sacrificed. Tumors were removed and weighed and the weights compared between treated and control mice.

[7] = system: healthy and tumoral pancreatic tissues; settings: 0.5 µg/ml, avidin-FITC
Method: (§2) Tumoral and healthy colon and pancreatic tissues were collected from oncological patients undergoing tumor resection. Frozen tissue tek® (Sakura Finetechnical, Tokyo, Japan) embedded tissues were sliced 15 µm thick in a cryostat (Reichert- Jung 2800 frigocut N) and placed on glass slides. Serial sections of the same biopsy were analysed both by hematoxylin/eosin (H&E) light microscopy and by fluorescent confocal microscopy. For immunofluorescent analysis the sections were fixed by immersion in 3% paraformaldehyde in PBS for 15' at room temperature., washed once and stored over night at 4°C with 0.1 M glycine in PBS. After saturation with fetal calf serum, the slices were incubated for 30' at 37°C with NT4(8-13)-Bio (0.5 µg/ml in PBS-BSA 3%) or with the uncorrelated branched peptide (DDHSAV, SEQ ID No. 4)4-Bio (0.5 µg/ml in PBS-BSA 3%), washed twice with PBS and incubated with avidin-FITC (0.5 µg/ml in PBS-BSA 3%) for 15' at room temperature. After washing, the sections were mounted with Mowiol® (Calbiochem, Cat. No. 475904) and sealed with nail polish. Negative controls were carried out incubating the slices (both tumoral and normal tissues) with avidin-FITC without previous incubation with NT4(8-13)-Bio. The fluorescine signal was observed by confocal laser microscopy (BIO-Rad MRC600) with a 488 nm excitation light.

human colon tumors = assay: Fluorescent detection of NT receptors in colon biopsy sections; assay type: binding; settings: 0.5 µg/ml, avidin-FITC
Method: as §2

HT29 cells [8] = assay: Phototoxicity (photokilling) by MTT assay; assay type: cell-based, human; settings: 4 hours at 37°C in the dark, 100 µM to 0.1 µM, irradiated 3 J/cm^2
Method: In order to assess the phototoxicity of NT4(8-13)-Che6 conjugate, photokilling experiments were carried out on HT29 cells. HT29 cells (2 x 10^4/well) were plated in 96-well microplates. After growing for 2 days, the cells were incubated at 37°C in the dark with different concentrations of NT4-Che6 (from 100 µM to 0.1 µM in RPMI with 10% FCS) for 4 hours. The cells were then washed to remove unbound conjugate and irradiated (except dark controls) with a Zeiss KL1500 tungsten halogen lamp (Zeiss, Jena, Germany) equipped with a 600-800 nm band pass filter (Corion, Franklin, MA) and with two optical fibers placed 1 cm from the well. The plate was placed back in the incubator overnight and the phototoxicity of the conjugate was monitored in a MTT assay. Similar experiments were performed with scramble NT4(8-13)-Che6 [(LRIPRY)4-Che6] and with free Che6. Further controls included HT29 cells incubated with the conjugate and not irradiated, cells irradiated and not incubated and untreated cells.

HT29 tumors [9] = assay: In vivo tumor growth retardation, HT29 tumors grafted in nude mice; parameters: species or system CD-1 nude mice; settings: i.v. on days 0, 5, 10 and 15, 4.05 µmol/kg
Description: The invention will be now described by non limiting examples referring to the following figures: • FIGURE 1. […] NT4(8-13) peptide binding and cell internalization. […] Lysosome localization of NT4(8-13)-TMR. […] NT4(8-13) binding to colon and pancreas tumoral biopsies. Confocal microscopy images of (A) human sections of colon carcinoma, (B) healthy colon, (C) pancreatic carcinoma and (D) healthy pancreas. […] NTR regeneration. […] NT4(8-13)-Che6 cytotoxicity. […] The cells were then washed to remove unbound conjugate and irradiated (except for dark controls) with a total light dose of 3 J/cm^2. Drug phototoxicity was assessed by measuring cell survival, using the MTT assay 24 hours after irradiation. Negative controls (--) included HT29 cells incubated with the conjugate and not irradiated, cells irradiated and not incubated and untreated cells. • FIGURE 9. […] Inhibition of cell growth was tested by an MTT assay after 72 hours of incubation. • FIGURE 10. In vivo tumor growth retardation mediated by NT4(8-13)-MTX. […] Five days after the last injection, animals were sacrificed and tumors were removed and weighed.

T1 sequence (P30989 whole entry): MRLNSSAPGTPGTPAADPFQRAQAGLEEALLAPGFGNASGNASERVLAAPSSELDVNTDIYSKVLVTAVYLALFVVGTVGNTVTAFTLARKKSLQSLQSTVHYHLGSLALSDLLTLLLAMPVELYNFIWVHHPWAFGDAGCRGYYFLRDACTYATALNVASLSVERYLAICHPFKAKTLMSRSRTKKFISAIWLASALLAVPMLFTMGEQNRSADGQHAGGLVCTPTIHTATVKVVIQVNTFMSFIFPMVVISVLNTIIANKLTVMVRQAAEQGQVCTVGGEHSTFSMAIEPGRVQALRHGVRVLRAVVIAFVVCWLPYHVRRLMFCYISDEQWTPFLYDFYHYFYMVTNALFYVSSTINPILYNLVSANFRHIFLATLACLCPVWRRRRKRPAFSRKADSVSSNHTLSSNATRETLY

With “tetrameric NT(8-13)4-PEG-Tetramethyl rhodamine [NT4(8-13)-TMR]” the peptide fluorescence localization (HT29 cells [1]; 4 hours) was “completely internalised”, the peptide fluorescence localization (HT29 cells [1]; 18 hours) was “complete degradation of the peptide conjugate” and the peptide fluorescence localization (HT29 cells [1]; time 0) was “localized exclusively on the plasma membrane”. The peptide fluorescence localization (HT29 cells [1]; two hours) was “present on the plasma membrane and in the cytoplasm”, the rhodamine signal (HaCat cells) was “no rhodamine signal” and the “saturation of membrane receptors” value (HT29 cells [2]; 100 µg/ml in PBS - 1% BSA, 1 h at 4°C) was “saturated”. The lysosomal localization (HT29 cells [3]) was “colocalization of NT4(8-13)-TMR with lysotracker green was observed” and the “red fluorescent signal on the plasma membrane” value (HT29 cells [4]) was “binding of the peptide to membrane receptors”.

“tetrabranched NT(8-13)-PEG-Methotrexate [NT4(8-13)-MTX]” was tested, and the “cytostatic activity (inhibition of cell growth, MTT)” value (HT29 cells [5]) was “active”, the IC50 (NT receptors (NTR)) was 500 nM and the mice death (HT29 tumors [6]; 4.05 µmol/kg iv on days 0, 5, 10 and 15) was “no mice death was observed”. For the same molecule, the Tumor weight (HT29 tumors [6]; at the end of the experiment, 4.05 µmol/kg iv x4) was “significantly reduced”, the tumor growth (HT29 tumors [6]; iv on days 0, 5, 10 and 15, 4.05 µmol/kg, compared to control mice) was “prevented tumor growth” and the “volume of tumors relative to mice injected with PBS” value (HT29 tumors [6]; iv on days 0, 5, 10 and 15, 4.05 µmol/kg, over the whole treatment) was “about one third”.

For “Tetrameric NT(8-13)4-PEG-Biotin [NT4(8-13)-Bio]”, the “binding to tumoral versus healthy tissue” value [7] was “Analogous results”, the IC50 (NT receptors (NTR)) was 0.1 nM and the “green signal (avidin FITC) after receptor saturation” value (HT29 cells [2]; 0.5 µg/ml, directly after saturation with NT4(8-13)-TMR) was “did not produce any detectable green signal”. For the same molecule, the “receptor availability for ligand binding after regeneration” value (HT29 cells [2]; after saturation with NT4(8-13)-TMR, washing and 37°C in culture medium overnight) was “the receptor was again available for ligand binding”, the “fluorescent staining of tumoral biopsies” value (human colon tumors; colon tumoral biopsies (ten), 30' at 37°C) was “All colon tumoral specimens were positively stained” and the “fluorescent staining of healthy tissue” value (human colon tumors; corresponding normal colon tissue from the same patient) was “only one of the healthy tissues showed a low fluorescent signal”.

In the case of “tetrabranched NT(8-13)4-PEG-Chlorine e6 [NT4(8-13)-Che6]”, the IC50 (NT receptors (NTR)) is reported as 2200 nM and the “phototoxicity (cell survival, MTT)” value (HT29 cells [8]) is reported as “maintained its cytotoxicity”.

With `CN(Cc1cnc2nc(N)nc(N)c2n1)c1ccc(C(=O)N[C@@H](CCC(=O)O)C(=O)O)cc1` [MTX, Methotrexate] the tumor growth (HT29 tumors [9]; compared to control mice) was “slight decrease in tumor growth” and the “Tumor weight, measured at the end of the experiment” value (HT29 tumors [9]; five days after the last injection, Fig. 10) was “almost the same”.
